Assay results published in US7659277B2, “Ubiquitin ligase inhibitors and methods related thereto” (Proteologies, Ltd., priority 2003, dated 2010).
Where two headings read alike, the source gives them in different places.

Experiments:
POSH = target: T1, POSH (Homo sapiens, UniProt Q7Z6J0); assay: Selectivity (% A in 1 μM), ubiquitin ligase activity of POSH; assay type: biochemical; settings: read-out: Selectivity (% A* in 1 μM) POSH
T1 construct: GST-POSH lot NB81/p.118 3.6 mg/ml; fused on or other part: GST tag, used for detection with anti-GST XL665
T1 sequence (Q7Z6J0 1-269 limits assumed): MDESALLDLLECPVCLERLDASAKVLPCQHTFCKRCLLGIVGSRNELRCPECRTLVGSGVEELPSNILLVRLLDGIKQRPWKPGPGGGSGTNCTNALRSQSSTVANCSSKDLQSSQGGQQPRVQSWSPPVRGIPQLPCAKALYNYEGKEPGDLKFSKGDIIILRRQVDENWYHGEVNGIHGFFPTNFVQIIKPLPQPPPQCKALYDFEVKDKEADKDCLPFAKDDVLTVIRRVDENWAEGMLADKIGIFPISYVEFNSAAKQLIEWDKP
Procedure, shortened: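 GST-POSH at 33 nM was preincubated 30 min at RT with compounds (1 mM stocks in DMSO, 5 μl into 100 μl) before addition to the E1/E2 enzyme mix. Dose-response runs used 44 nM to 4.44 μM compound in triplicate, with DMSO-only and no-E3 controls.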

Hmdm2 = Hmdm2 (Homo sapiens, UniProt Q00987); assay: Selectivity (% A in 1 μM), ubiquitin ligase activity of Hmdm2; assay type: biochemical; settings: read-out: Selectivity (% A* in 1 μM) Hmdm2
Hmdm2, sequence (Q00987 whole entry): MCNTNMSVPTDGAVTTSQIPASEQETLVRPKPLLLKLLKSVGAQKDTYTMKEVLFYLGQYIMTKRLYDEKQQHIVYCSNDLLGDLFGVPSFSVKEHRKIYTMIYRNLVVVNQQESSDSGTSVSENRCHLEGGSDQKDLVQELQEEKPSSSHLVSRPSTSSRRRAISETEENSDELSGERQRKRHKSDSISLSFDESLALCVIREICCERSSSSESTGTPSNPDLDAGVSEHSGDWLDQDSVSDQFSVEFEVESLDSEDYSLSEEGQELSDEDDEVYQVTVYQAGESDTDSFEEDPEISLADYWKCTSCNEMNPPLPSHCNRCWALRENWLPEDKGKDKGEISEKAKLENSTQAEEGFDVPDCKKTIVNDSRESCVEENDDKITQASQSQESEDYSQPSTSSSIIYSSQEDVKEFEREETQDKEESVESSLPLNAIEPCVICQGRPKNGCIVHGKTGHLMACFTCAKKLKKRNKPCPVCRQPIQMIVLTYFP

[1] = % activity at 1 μM compound, control is related to 100% activity, HTS protocol

Work on Cc1ccc(C(=O)NN=C2CCC(=NNC(=O)c3ccc(C)cc3)CC2)cc1 [Compound 93] yielded a remaining activity at 1 µM (POSH; [1]) of 21% and a remaining activity at 1 µM (Hmdm2; [1]) of 106%.
In the case of O=C1c2ccccc2-c2nc3nonc3nc21 [Compound 91], the remaining activity at 1 µM (POSH) is reported as 11% and the remaining activity at 1 µM (Hmdm2) is reported as 62%.
Cc1cc(O)c(C(=O)/C=C/c2cccc(I)c2)c(=O)o1 [Compound 87] gave a remaining activity at 1 µM (POSH) of 33% and a remaining activity at 1 µM (Hmdm2) of 119%.
In the case of COC(=O)C1=C(C(=O)OC)SC(=C2C(=S)C(C)(C)N(C(C)=O)c3cc(C)ccc32)S1 [Compound 99], the remaining activity at 1 µM (POSH; [1]) is reported as 36% and the remaining activity at 1 µM (Hmdm2; [1]) is reported as 101%.
With O=C(/C=C/c1cccnc1)c1ccc(C(=O)/C=C/c2cccnc2)cc1 [Compound 92] the remaining activity at 1 µM (POSH; [1]) was 21% and the remaining activity at 1 µM (Hmdm2; [1]) was 105%.
O=C(Nc1cccc2c(NC(=O)C3C4CCCCC43)cccc12)C1C2CCCCC21 (stereo not drawn) [Compound 97] was tested, and the remaining activity at 1 µM (POSH) was 13% and the remaining activity at 1 µM (Hmdm2) was 123%.
O=c1oc2ccccc2c(O)c1C(=S)Nc1ccccc1 [Compound 96] showed a remaining activity at 1 µM (POSH) of 105% and a remaining activity at 1 µM (Hmdm2) of 90%.
COc1ccc(C(=O)CC2=C(O)C(=O)c3ccccc3C2=O)cc1 [Compound 89] was tested, and the remaining activity at 1 µM (POSH; [1]) was 45% and the remaining activity at 1 µM (Hmdm2; [1]) was 79%.
Compound COc1ccc(Nc2ccc(O)c3c2C(=O)c2ccccc2C3=O)cc1 [Compound 100] has a remaining activity at 1 µM (POSH; [1]) of 99% and a remaining activity at 1 µM (Hmdm2; [1]) of 75%.
O=C(NCc1ccc(Cl)cc1)C(=O)Nc1ccccc1 [Compound 104] showed a remaining activity at 1 µM (POSH; [1]) of 111% and a remaining activity at 1 µM (Hmdm2; [1]) of 145%.
In the case of O=C(O)COc1ccc2c(c1)oc(=O)c1ccccc12 [Compound 85], the remaining activity at 1 µM (POSH) is reported as 26% and the remaining activity at 1 µM (Hmdm2) is reported as 94%.
Work on O=C(NC(C(Cl)(Cl)Cl)S(=O)(=O)c1ccccc1)c1ccc(Cl)cc1Cl (stereo not drawn) [Compound 88] yielded a remaining activity at 1 µM (POSH) of 172% and a remaining activity at 1 µM (Hmdm2) of 118%.
Compound Cc1[nH]c(=O)c(C(=O)/C=C/c2ccccc2F)c2c1CCCC2 [Compound 95] has a remaining activity at 1 µM (POSH; [1]) of 12% and a remaining activity at 1 µM (Hmdm2; [1]) of 98%.
With CN(C)c1ccc(/C=C2/C(=O)NC(=O)N(C3CCCCC3)C2=O)cc1 [Compound 3] the remaining activity at 1 µM (POSH; [1]) was 47% and the remaining activity at 1 µM (Hmdm2; [1]) was 102%.
Compound O=C1NC(=O)N(c2ccccc2)C(=O)/C1=C\c1ccc2c(c1)OCO2 [Compound 4] has a remaining activity at 1 µM (POSH; [1]) of 48% and a remaining activity at 1 µM (Hmdm2; [1]) of 105%.
Cc1cc(OC(=O)Cn2c(=O)sc3ccccc32)ccc1Cl [Compound 103] gave a remaining activity at 1 µM (POSH) of 102% and a remaining activity at 1 µM (Hmdm2) of 100%.
Work on O=C(Cc1ccccc1)N1N=CCC1(O)c1ccc(F)cc1 (stereo not drawn) [Compound 94] yielded a remaining activity at 1 µM (POSH; [1]) of 71% and a remaining activity at 1 µM (Hmdm2; [1]) of 103%.
In the case of COc1cc(C2Nc3ccccc3NC3=C2C(=O)CC(C)(C)C3)cc(Br)c1O (stereo not drawn) [Compound 102], the remaining activity at 1 µM (POSH; [1]) is reported as 52% and the remaining activity at 1 µM (Hmdm2; [1]) is reported as 97%.
